# Test results taken from patent publication US5637770A (priority 1991, dated 1997).
# pIC50: −log10 of the molar value. Read-outs that look alike come from different tables or passages of the source.
# What was measured:
# [1] = system: P388 murine leukemia cells; test: MTT cytotoxicity test on P388 murine leukemia cells (Table 1); format: cell-based; settings: 3 days
# Protocol: P388 murine leukemia cells were spread over a 96-well microplate, 2.5×10^3 cells per well. A sample to be tested was added after 24 hours. Cells were cultivated under the conditions of 5% CO2 at 37° C. for 3 days. 3-(4,5-Dimethylthiazol-2-yl)-2,5-diphenyl-2H-tetrazolium bromide (MTT) was added 4 hours after the addition of the sample. Upon the addition of […] of isopropyl alcohol containing 0.04N HCl the absorption at 540 nm was measured to determine IC50.
# MCF-7 (Breast) = test: In vitro anti-proliferative activity, MCF-7 (Table 2-2); format: cell-based; settings: Homo sapiens, MCF7, 72 h, read-out: in vitro anti-proliferative activity (Gl50)
# Protocol: (§1) In vitro anti-proliferative activities of the drugs against 4 human and 1 murine cell lines were measured by the MTT assay (see page 11 of the parent specification) after 3 days incubation, and expressed as the doses required to inhibit growth of 50% cells cultivated (Gl50, ng/ml).
# QG90 (Lung) = test: In vitro anti-proliferative activity, QG90 (Table 2-2); format: cell-based; settings: Homo sapiens, QG-90, 72 h, read-out: in vitro anti-proliferative activity (Gl50)
# Protocol: as §1
# p388 (Mouse leukemia) = test: In vitro anti-proliferative activity, p388 (Table 2-2); format: cell-based; settings: read-out: in vitro anti-proliferative activity (Gl50)
# Protocol: as §1
# MKN28 (Stomach) = test: In vitro anti-proliferative activity, MKN28 (Table 2-2); format: cell-based; settings: Homo sapiens, MKN-28, 72 h, read-out: in vitro anti-proliferative activity (Gl50)
# Protocol: as §1
# Meth A fibrosarcoma = test: In vivo anti-tumor activity, Meth A fibrosarcoma in BALB/c mice (Table 3); settings: i.v.; for Death Nos.: qd×4; for Tumor cell anti-proliferative activity: qd×4 (days 5-8), day 14
# Protocol: In vivo anti-tumor activities of drugs were assayed with Meth A fibrosarcoma in BALB/c mice. Mice were treated intravenously with several doses of drugs on days 5, 6, 7, and 8 (qd×4) after hypodermic tumor implantation, and the weight of the tumor masses measured on day 14. The anti-tumor activities of drugs against the tumor were expressed as the relative tumor weight of controls (%).
# HOC-21 (Ovary) = test: In vitro anti-proliferative activity, HOC-21 (Table 2-2); format: cell-based; settings: Homo sapiens, read-out: in vitro anti-proliferative activity (Gl50)
# Protocol: as §1
# [2] = system: 4 human and 1 murine cell lines; test: In vitro anti-proliferative activity, mean over the cell lines (Table 2-2); format: cell-based; settings: read-out: in vitro anti-proliferative activity (Gl50), MEAN
# Protocol: as §1
# Acute toxicity in mice = format: in vivo; settings: i.v., male BALB/c mice, survival on day 14, Probit method
# Protocol: Groups of 5 male BALB/c mice were administered intravenously with several doses of drugs, and their survivals from death were recorded up to day 14. The 10 and 50% lethal doses (LD10 and LD50) were calculated form the survival rate on day 14 by the Probit method.
# topoisomerase I = target: T1, topoisomerase I (Mus musculus, UniProt Q04750); test: Topoisomerase I assay, relaxation of supercoiled SV40 DNA; format: biochemical, p388 mouse leukemia
# T1 construct: Topoisomerase I was prepared from p388 mouse leukemia; endogenous in cells; host or cells: P388 mouse leukemia
# T1 sequence (Q04750 1-767): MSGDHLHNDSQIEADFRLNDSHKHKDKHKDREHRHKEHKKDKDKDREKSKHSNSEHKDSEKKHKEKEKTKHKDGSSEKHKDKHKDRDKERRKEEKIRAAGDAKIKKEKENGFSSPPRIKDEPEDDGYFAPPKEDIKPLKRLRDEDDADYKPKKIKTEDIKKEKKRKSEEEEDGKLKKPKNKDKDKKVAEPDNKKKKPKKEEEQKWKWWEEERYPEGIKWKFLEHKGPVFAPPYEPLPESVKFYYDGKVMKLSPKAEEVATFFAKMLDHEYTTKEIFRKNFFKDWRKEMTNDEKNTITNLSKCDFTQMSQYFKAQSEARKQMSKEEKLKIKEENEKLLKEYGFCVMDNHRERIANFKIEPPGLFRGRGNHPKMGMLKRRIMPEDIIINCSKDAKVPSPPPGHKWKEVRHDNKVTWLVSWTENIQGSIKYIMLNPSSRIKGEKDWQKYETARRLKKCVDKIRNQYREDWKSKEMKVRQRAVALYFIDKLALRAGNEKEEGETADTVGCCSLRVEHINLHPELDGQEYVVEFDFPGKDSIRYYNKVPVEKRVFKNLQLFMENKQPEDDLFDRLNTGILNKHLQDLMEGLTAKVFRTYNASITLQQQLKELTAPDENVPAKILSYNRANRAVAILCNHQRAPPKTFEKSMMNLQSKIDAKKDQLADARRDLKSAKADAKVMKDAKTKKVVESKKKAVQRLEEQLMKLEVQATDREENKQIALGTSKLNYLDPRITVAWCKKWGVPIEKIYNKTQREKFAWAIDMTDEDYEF
# Protocol: Topoisomerase I was prepared from p388 mouse leukemia. One unit (the minimum amount of full relaxation of 0.5 μg SV40 DNA) of topoisomerase I,
# 0.5 μl of the test compounds, and 0.5 μg of SV40 DNA were added sequentially to the reaction buffer. The reaction mixture (50 μl) was incubated for 10 min and 37° C. and analyzed by electrophoresis, the gel was stained with 0.05% ethydium bromide and photographed with UV light. The DNA was quantified using a densitometor. The inhibition rate of the topoisomerase activity was calculated as [formula] where Frt and Frc are ratios of relaxed DNA to total DNA treated with topoisomerase in the presence and absence of the test drug, respectively. Fr is the proportion of relaxed DNA in untreated DNA. The IC50 of each test drug was estimated from the dose-response.
# nucleic acid synthesis = settings: background statement; cited from earlier work
# [3] = clinical tests in the United States; cited from earlier work
# [4] = system: QG56 (human lung cancer cells); test: MTT method, activity on QG56 cells (Table 2-1); format: cell-based; settings: QG-56, 72 h
# Protocol: (§2) See page 11 of the parent specification. In detail, p388 murine leukemia cells, MKN 28 (human stomach cancer cells), QG56 (human lung cancer cells) and HOC21 (human ovarian cancer cells) were provided. The cells were spread over a 96-well microplate, respectively, and a sample to be tested was added to each of them after 24 hours. Cells were cultivated under the conditions of 5% CO2 at 37° C. for 3 days.
# (§3) 3-(4,5-Dimethylthiazol-2-yl)-2,5-diphenyl-2H-tetrazolium bromide (abbriviated as MTT) was added thereto 4 hours after the addition of the sample. Upon the addition of […] of isopropyl alcohol containing 0.04N HCl, the absorption at 540 nm was measured To determine IC50.
# [5] = system: P388 murine leukemia cells; test: MTT method, activity on p388 cells (Table 2-1); format: cell-based; settings: Mus musculus
# Protocol: as §2, §3
# [6] = system: MKN 28 (human stomach cancer cells); test: MTT method, activity on MKN28 cells (Table 2-1); format: cell-based; settings: MKN-28, 72 h
# Protocol: as §2, §3
# [7] = system: HOC21 (human ovarian cancer cells); test: MTT method, activity on HOC21 cells (Table 2-1); format: cell-based; settings: HOC-21, 72 h
# Protocol: as §2, §3
# [8] = MCF-7 (Breast), MTT, 3 days incubation
# [9] = QG90 (Lung), MTT, 3 days incubation
# [10] = 72 h, p388 (Mouse leukemia), MTT, 3 days incubation
# [11] = MKN28 (Stomach), MTT, 3 days incubation
# [12] = 72 h, HOC-21 (Ovary), MTT, 3 days incubation
smiles,measurement,setting,value
"CC[C@@]1(O)C(=O)OCc2c1cc1n(c2=O)Cc2c-1nc1ccc(OC)c3c1c2C(N)CC3.Cl (single isomer, unassigned) [Example 4 (Isomer A)]",IC50,[1]; hydrochloride,9.21 ng/mL
"CCc1c2c(nc3ccc(OC(=O)N4CCC(N5CCCCC5)CC4)cc13)-c1cc3c(c(=O)n1C2)COC(=O)[C@]3(O)CC [CPT-11, irinotecan]",IC50,MCF-7 (Breast); [8],1200 ng/mL
same,IC50,QG90 (Lung); [9],1550 ng/mL
same,IC50,p388 (Mouse leukemia); [10],2850 ng/mL
same,IC50,MKN28 (Stomach); [11],8690 ng/mL
same,Death Nos.,Meth A fibrosarcoma; total dose 25 mg/kg,0/6
same,Tumor cell anti-proliferative activity,Meth A fibrosarcoma; total dose 25 mg/kg,31.4%
same,Death Nos.,Meth A fibrosarcoma; total dose 50 mg/kg,0/6
same,Tumor cell anti-proliferative activity,Meth A fibrosarcoma; total dose 50 mg/kg,53.3%
same,Death Nos.,Meth A fibrosarcoma; total dose 100 mg/kg,0/6
same,Tumor cell anti-proliferative activity,Meth A fibrosarcoma; total dose 100 mg/kg,62.3%
same,Death Nos.,Meth A fibrosarcoma; total dose 200 mg/kg,0/6
same,Tumor cell anti-proliferative activity,Meth A fibrosarcoma; total dose 200 mg/kg,79.4%
same,IC50,HOC-21 (Ovary); [12],15100 ng/mL
same,IC50,[2]; mean of the 5 cell lines,5870 ng/mL
same,LD10,Acute toxicity in mice,198 mg/m^2
same,LD50,Acute toxicity in mice,270 mg/m^2
"CC[C@@]1(O)C(=O)OCc2c1cc1n(c2=O)Cc2cc3ccccc3nc2-1 [camptohecin, camptothecin]",pIC50,topoisomerase I,4.36
same,antitumor activity,nucleic acid synthesis,exhibit an antitumor activity
same,safety in clinical tests,[3],problem in view of safety
"CC[C@@]1(O)C(=O)OCc2c1cc1n(c2=O)Cc2c-1nc1cccc3c1c2C(N)CC3.Cl (single isomer, unassigned) [Example 2 (Isomer B)]",IC50,[1]; hydrochloride,12.40 ng/mL
"CCc1c2c(nc3ccc(O)cc13)-c1cc3c(c(=O)n1C2)COC(=O)[C@]3(O)CC [SN-38, 7Ethyl-10-hydroxycamptothecin]",IC50,"topoisomerase I; SV40 DNA, 10 min, 37° C., read-out: Inhibition of topoisomerase I-induced relaxation of supercoiled DNA (IC50) (converted)",3.57 µM
same,IC50,MCF-7 (Breast); [8],0.49 ng/mL
same,IC50,"[4]; QG56, MTT, 3 days, read-out: IC50",2.46 ng/mL
same,IC50,"[5]; 72 h, p388, MTT, 3 days, read-out: IC50",1.33 ng/mL
same,IC50,QG90 (Lung); [9],1.43 ng/mL
same,IC50,p388 (Mouse leukemia); [10],3.22 ng/mL
same,IC50,MKN28 (Stomach); [11],21.7 ng/mL
same,IC50,HOC-21 (Ovary); [12],21.4 ng/mL
same,IC50,[2]; mean of the 5 cell lines,9.63 ng/mL
same,IC50,"[6]; MKN28, MTT, 3 days, read-out: IC50",61 ng/mL
same,IC50,"[7]; HOC21, MTT, 3 days, read-out: IC50",53.2 ng/mL
"CC[C@@]1(O)C(=O)OCc2c1cc1n(c2=O)Cc2c-1nc1ccc(OC)c3c1c2CCC3N.Cl (single isomer, unassigned) [Example 7 (Isomer A)]",IC50,"[1]; Mus musculus, P388, 72 h, read-out: IC50",11.4 ng/mL
"CC[C@@]1(O)C(=O)OCc2c1cc1n(c2=O)Cc2c-1nc1ccc(OC)c3c1c2C(N)CC3.Cl (single isomer, unassigned) [Example 4 (Isomer B)]",IC50,[1]; hydrochloride,27.80 ng/mL
"CC[C@@]1(O)C(=O)OCc2c1cc1n(c2=O)Cc2c-1nc1cc(F)c(C)c3c1c2C(N)CC3.Cl (stereo partly drawn) [DX-8951, (9S)-1-amino-9-ethyl-5-fluoro-2,3-dihydro-9-hydroxy-4-methyl-1H,12H-benzo[de]pyrano[3',4':6,7]indolizino[1,2-b]quinoline-10,13(9H,15H)-dione hydrochloride]",pIC50,topoisomerase I,5.95
same,IC50,MCF-7 (Breast),0.16 ng/mL
same,IC50,[4],0.67 ng/mL
same,IC50,"[5]; P388, 72 h",0.58 ng/mL
same,IC50,QG90 (Lung),0.66 ng/mL
same,IC50,"p388 (Mouse leukemia); Mus musculus, P388, 72 h",1.06 ng/mL
same,IC50,MKN28 (Stomach),1.75 ng/mL
same,Death Nos.,Meth A fibrosarcoma; total dose 1.875 mg/kg,0/6
same,Tumor cell anti-proliferative activity,Meth A fibrosarcoma; total dose 1.875 mg/kg,72.5%
same,Death Nos.,Meth A fibrosarcoma; total dose 3.75 mg/kg,0/6
same,Tumor cell anti-proliferative activity,Meth A fibrosarcoma; total dose 3.75 mg/kg,78.3%
same,Death Nos.,Meth A fibrosarcoma; total dose 7.5 mg/kg,0/6
same,Tumor cell anti-proliferative activity,Meth A fibrosarcoma; total dose 7.5 mg/kg,87.5%
same,Death Nos.,Meth A fibrosarcoma; total dose 15 mg/kg,0/6
same,Tumor cell anti-proliferative activity,Meth A fibrosarcoma; total dose 15 mg/kg,96.6%
same,Death Nos.,Meth A fibrosarcoma; total dose 30 mg/kg,2/6
same,Tumor cell anti-proliferative activity,Meth A fibrosarcoma; total dose 30 mg/kg,96.4%
same,IC50,"HOC-21 (Ovary); HOC-21, 72 h",3.67 ng/mL
same,IC50,[2],1.46 ng/mL
same,IC50,[6],9.4 ng/mL
same,IC50,[7],12.8 ng/mL
same,LD10,Acute toxicity in mice,228 mg/m^2
same,LD50,Acute toxicity in mice,270 mg/m^2
"CC[C@@]1(O)C(=O)OCc2c1cc1n(c2=O)Cc2c-1nc1ccc(OC)c3c1c2CCC3N.Cl (single isomer, unassigned) [Example 7 (Isomer B)]",IC50,[1]; hydrochloride,11.90 ng/mL
"CC[C@@]1(O)C(=O)OCc2c1cc1n(c2=O)Cc2c-1nc1cccc3c1c2C(N)CC3.Cl (single isomer, unassigned) [Example 2 (Isomer A)]",IC50,[1]; hydrochloride,3.38 ng/mL
